# Results: US20140315981A1, “STRATEGIES FOR PREVENTION AND/OR TREATMENT OF DISEASES BASED ON CD40 SILENCING” (FUNDACIO INSTITUT D'INVESTIGACIO BIOMEDICA DE BELLVITGE …, priority 2011, published 2014)
# Legend:
# Assay type in all cases: in vivo
# NZB/W F1 female mice [1] = experiment: Survival of NZB/W F1 mice with lupus nephritis under treatment; conditions: intraperitoneal treatment from six to nine months of age
# Experimental: Animals NZB/W F1 female mice (Charles River, Spain) were used. […] Mice were housed in a constant temperature room with a 12-hour dark/12-hour light cycle, and were given free access to water and a standard laboratory diet.
# (§1) Treatment was given from six to nine old months. Body weight was determined twice a month. Mice were placed in metabolic cages to collect 24-hour urine specimens before treatment, and again at six, seven and eight months. Blood was obtained from the tail vein at the same intervals. At the end of the follow-up, survivor animals were sacrificed and kidney processed for histological studies.
# Data are expressed as mean+SE. Overall survival was analyzed by the Kaplan-Meier method. […] All P-values were two-tailed, and a P-value <0.05 was considered significant.
# NZB/W F1 female mice [2] = experiment: Anti-DNA antibodies in serum by ELISA, murine lupus nephritis; conditions: FIG. 2
# Experimental: Urinary protein concentration was determined by a commercial kit based on the Ponceau method (BayerDiagnostics, Madrid, Spain). Serum creatinine levels (in milligrams per decilitre) were determined by Jaffés method on an autoanalyzer (Beckman Instruments, Palo Alto, Calif.) at the end of the follow-up. Anti-DNA antibodies levels of anti-DNA antibodies were measured before treatment, and subsequently each month and at sacrifice, using a commercially available ELISA kit (Alpha Diagnostic International, San Antonio, Tex., USA) according to manufacturer's instructions (serum diluted 1:100). This kit is based on a purified dsDNA coated microwell plate. Antibodies to dsDNA are directed against the phosphate-deoxyribose backbone of the DNA molecule. Anti-dsDNA from serum samples bind to extracted nuclear antigen immobilized on microtiter wells. Anti-mouse IgG-HRP conjugate is added, and the colour developed by chromogenic substrate addition. The enzymatic reaction (blue colour) is directly proportional to the amount of the anti-dsDNA in the sample. Kits contain positive and negative controls, and anti-DNA antibodies are estimated in a semi-quantitative way according to the optical density (o.d. 450).
# NZB/W F1 female mice [3] = experiment: Renal immunofluorescence of glomerular IgG and C3 deposition, murine lupus nephritis; conditions: FIG. 7
# Experimental: Renal immunofluorescence. For analysis of Ig and complement deposition, fluorescent staining of cryosections was used. Five-micrometer cryostat sections were fixed in acetone at −80° C. for 20 minutes, then blocked with 20% normal goat serum and directly stained with FITC-conjugated goat anti-mouse IgG at 1/300 (Sigma-Aldrich). To stain for complement, slides were then sequentially incubated in rat anti-mouse complement C3, at 1/50 (Cedarlane Laboratories Limited), followed by Alexa Fluor 546-conjugated goat anti-rat IgG at 1/1000 (Invitrogen, Molecular Probes). At least 30 glomeruli, visualized and photographed with an immunofluorescence microscope, from each animal were examined in a binded manner. A semiquantitative score of staining intensity and distribution from 0 to 4+ was given, where 0+ denotes no signal; 1+, minimal signal; 2+, low signal; 3+, moderate signal and 4+, strong signal intensity.
# NZB/W F1 female mice [4] = experiment: Proteinuria and renal function, murine lupus nephritis; conditions: vs. control, FIG. 3
# Experimental: as §1
# NZB/W F1 female mice [5] = experiment: Spleen weight and splenocyte B cell populations, murine lupus nephritis; conditions: FIG. 9
compound,measurement,setting,value
"O=P1(N(CCCl)CCCl)NCCCO1 (centres unmarked) [CYP, cyclophosphamide]",Cumulative survival analyzed by the Kaplan-Meier method,NZB/W F1 female mice [1],100%
same,anti-dsDNA titers,NZB/W F1 female mice [2],lower
same,glomerular deposition of C3,NZB/W F1 female mice [3],more effective in reducing C3 deposition than costimulatory blockade
same,proteinuria,NZB/W F1 female mice [4],significantly lower
same,proportion of B cells in splenocytes,NZB/W F1 female mice [5],markedly reduced
